In ChEMBL document CHEMBL1926662, “Trace amine-associated receptor 1 is a stereoselective binding site for compounds in the amphetamine class” (Bioorg Med Chem, 2011):
pEC50: −log10 of the molar value.

How the values were obtained:
[1] = biological target: T1, Trace amine-associated receptor 1 (Homo sapiens, UniProt Q96RJ0); assay: Activation of C-terminal HA epitope tagged human TAAR1 expressed in RD-HGA16 cells co-expressing Gq protein, Galpha16 by cAMP accumulation assay; assay type: functional, cell-based; settings: for EC50: rd-hga16; for pEC50: read-out: EC50
T1 sequence (Q96RJ0 whole entry): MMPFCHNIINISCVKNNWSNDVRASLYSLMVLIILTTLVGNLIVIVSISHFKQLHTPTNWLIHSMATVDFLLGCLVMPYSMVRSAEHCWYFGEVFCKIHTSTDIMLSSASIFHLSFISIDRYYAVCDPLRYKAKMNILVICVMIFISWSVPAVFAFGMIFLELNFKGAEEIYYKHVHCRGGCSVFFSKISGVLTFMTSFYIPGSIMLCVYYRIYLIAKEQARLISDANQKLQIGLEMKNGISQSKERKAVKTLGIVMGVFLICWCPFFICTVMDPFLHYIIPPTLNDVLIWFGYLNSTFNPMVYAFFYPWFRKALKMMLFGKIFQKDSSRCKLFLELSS

[2] = biological target: T2, Trace amine-associated receptor 1 (Macaca mulatta, UniProt Q8HZ64); assay: Activation of rhesus monkey TAAR1 expressed in RD-HGA16 cells co-expressing Gq protein assessed as cAMP accumulation by fluorescence plate reader; assay type: functional, cell-based; settings: for pEC50: read-out: EC50; for EC50: rd-hga16
T2 sequence (Q8HZ64 whole entry): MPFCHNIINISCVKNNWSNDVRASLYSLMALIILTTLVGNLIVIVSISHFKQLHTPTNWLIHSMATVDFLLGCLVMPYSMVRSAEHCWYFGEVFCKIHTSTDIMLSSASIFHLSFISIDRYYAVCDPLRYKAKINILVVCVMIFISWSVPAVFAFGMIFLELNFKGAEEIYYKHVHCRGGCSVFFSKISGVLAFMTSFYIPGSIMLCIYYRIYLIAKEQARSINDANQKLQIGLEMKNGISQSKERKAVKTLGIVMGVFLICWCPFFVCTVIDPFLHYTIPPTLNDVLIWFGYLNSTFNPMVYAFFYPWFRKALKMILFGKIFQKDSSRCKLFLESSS

[3] = biological target: T1, Trace amine-associated receptor 1; assay: Activation of human TAAR1 expressed in Syrian hamster AV12-664 cells co-expressing GalphaS protein assessed as accumulation of cAMP after 30 mins using cAMP XS EA/CL as substrate by luminescence method in presence of RX821002 and alprenolol; assay type: functional, cell-based
[4] = biological target: T3, Trace amine-associated receptor 1 (Mus musculus, UniProt Q923Y8); assay: Activation of mouse TAAR1 expressed in human HEK293 cells assessed as accumulation of [3H]cAMP after 1 hr by liquid scintillation counting; assay type: functional, cell-based
T3 sequence (Q923Y8 whole entry): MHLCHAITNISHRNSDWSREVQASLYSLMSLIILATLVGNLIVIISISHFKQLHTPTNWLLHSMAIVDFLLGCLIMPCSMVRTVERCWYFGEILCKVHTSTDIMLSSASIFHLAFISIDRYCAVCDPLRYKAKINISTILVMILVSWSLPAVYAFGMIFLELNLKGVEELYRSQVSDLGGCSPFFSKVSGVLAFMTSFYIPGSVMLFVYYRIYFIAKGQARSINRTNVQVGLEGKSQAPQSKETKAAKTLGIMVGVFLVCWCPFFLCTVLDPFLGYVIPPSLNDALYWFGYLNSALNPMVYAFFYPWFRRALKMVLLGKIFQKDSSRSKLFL

[5] = cells; settings: HEK293
Description: Activation of chimeric rat-human expressed in human HEK293 cells assessed as accumulation of [3H]cAMP after 1 hr by liquid scintillation counting

[6] = biological target: T4, Trace amine-associated receptor 1 (Rattus norvegicus, UniProt Q923Y9); assay: Activation of rat TAAR1 expressed in HEK293 cells assessed as accumulation of [3H]cAMP after 1 hr by liquid scintillation counting; assay type: functional, cell-based
T4 sequence (Q923Y9 whole entry): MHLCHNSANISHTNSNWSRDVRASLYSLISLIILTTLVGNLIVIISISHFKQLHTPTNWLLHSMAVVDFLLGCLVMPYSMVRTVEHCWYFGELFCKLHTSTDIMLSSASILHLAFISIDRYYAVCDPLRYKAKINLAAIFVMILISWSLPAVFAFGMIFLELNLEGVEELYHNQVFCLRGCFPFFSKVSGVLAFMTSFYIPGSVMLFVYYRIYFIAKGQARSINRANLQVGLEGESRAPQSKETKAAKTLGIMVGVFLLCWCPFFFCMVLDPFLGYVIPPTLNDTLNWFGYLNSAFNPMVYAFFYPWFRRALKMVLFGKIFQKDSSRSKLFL

[7] = biological target: T4, Trace amine-associated receptor 1; assay: Activation of rat TAAR1 expressed in HEK293 cells assessed as accumulation of [3H]cAMP after 1 hr by competitive binding assay; assay type: functional, cell-based
[8] = biological target: T1, Trace amine-associated receptor 1; assay: Activation of human TAAR1 expressed in human HEK293T cells assessed as cAMP accumulation after 10 mins by BRET assay; assay type: functional, cell-based, HEK-293T
[9] = biological target: T3, Trace amine-associated receptor 1; assay: Activation of mouse TAAR1 expressed in human HEK293 cells assessed as accumulation of cAMP after 15 mins; assay type: functional, cell-based

Structure (SMILES): COc1cc(C[C@H](C)N)c(OC)cc1C
- EC50 [1]: Not Active
- pEC50 [2]: 6.05

Structure (SMILES): NCCc1ccc(Oc2ccc(O)cc2)c(I)c1
- pEC50 [3]: 5.82

Structure (SMILES): C[C@@H](N)Cc1ccc(O)cc1
- pEC50 [4]: 5.25
- pEC50 [1]: 5.50
- pEC50 [5]: < 5.07
- pEC50 [6]: 7.22
- pEC50 [2]: 6.37

Structure (SMILES): C[C@H](N)Cc1ccc2c(c1)OCO2
- pEC50 [1]: 5.18
- pEC50 [2]: 5.87

Structure (SMILES): C[C@@H](N)Cc1ccc2c(c1)OCO2
- pEC50 [1]: 4.93
- pEC50 [2]: 5.61

Structure (SMILES): COc1cccc(C[C@@H](C)N)c1
- pEC50 [1]: 5.19
- EC50 [2]: Not Active

Structure (SMILES): CCc1cc(OC)c(C[C@H](C)N)cc1OC
- EC50 [2]: Not Active

Structure (SMILES): CCc1cc(OC)c(C[C@@H](C)N)cc1OC
- EC50 [1]: Not Active
- EC50 [2]: Not Active

Structure (SMILES): CN[C@H](C)Cc1ccccc1
- pEC50 [4]: 5.61
- pEC50 [1]: 5.48
- pEC50 [5]: 5.01
- pEC50 [6]: 5.92
- pEC50 [2]: 5.60

Structure (SMILES): CN[C@@H](C)Cc1ccc2c(c1)OCO2
- pEC50 [2]: 4.79

Structure (SMILES): C[C@@H](N)Cc1cccc(C(F)(F)F)c1
- EC50 [1]: Not Active

Structure (SMILES): COc1cc(C[C@@H](C)N)c(OC)cc1C
- EC50 [1]: Not Active
- EC50 [2]: Not Active

Structure (SMILES): CN[C@H](C)Cc1ccc2c(c1)OCO2
- EC50 [1]: Not Active
- pEC50 [2]: 5.13

Structure (SMILES): COc1cc(C[C@H](C)N)c(OC)cc1Br
- pEC50 [1]: 4.81
- pEC50 [2]: 5.67

Structure (SMILES): COc1cc(C[C@@H](C)N)c(OC)cc1Br
- pEC50 [1]: 4.50
- pEC50 [2]: 4.86

Structure (SMILES): CC(N)Cc1ccc(O)cc1 (racemic) [HYDROXYAMPHETAMINE]
- pEC50 [7]: 7.30

Structure (SMILES): CNC(C)Cc1ccc2c(c1)OCO2 (racemic) [MIDOMAFETAMINE]
- pEC50 [7]: 5.77

Structure (SMILES): COc1cccc(C[C@H](C)N)c1 [(S)-M-METHOXYAMPHETAMINE]
- pEC50 [1]: 5.72
- pEC50 [2]: 5.48

Structure (SMILES): C[C@H](N)Cc1ccc(O)cc1 [(S)-P-HYDROXYAMPHETAMINE]
- pEC50 [4]: 6.55
- pEC50 [1]: 5.53
- pEC50 [5]: < 5.27
- pEC50 [6]: 6.72
- pEC50 [2]: 7.00

Structure (SMILES): CN[C@@H](C)Cc1ccccc1 [METHAMPHETAMINE]
- pEC50 [4]: 6.04
- pEC50 [1]: 5.82
- pEC50 [5]: 5.35
- pEC50 [6]: 6.05
- pEC50 [8]: 5.89
- pEC50 [9]: 7.15
- pEC50 [2]: 5.28

Structure (SMILES): NCCc1ccccc1 [PHENETHYLAMINE]
- pEC50 [3]: 6.97
